Data reported in patent publication US4496587A, “Inhibition of bacterial toxin release by prostaglandins” (priority 1983, dated 1985).

Legend:
[1] = by acid in the stomach; cited from earlier work
C. difficile [2] = assay: cytotoxin in filtrates of C. difficile cultures grown in the presence of prostaglandin (Prostaglandin Incubated with C. difficile), titrated on HFF mono-layers; format: cell-based; details: for effectiveness as an antitoxic prostaglandin: by itself, in words; for decrease of the amount of toxin released from C. difficile: assay described in Example 1, pharmacologically practical amount, definition of antitoxic prostaglandin
Experimental: (§1) Forty-five filtrates of C. difficile cultures grown in the presence of different concentrations of 16,16-dimethyl-PGE2 were assayed for cytotoxin. (ATCC 9689 stands for American Type Culture Collection number 9689, and patients 1, 2, 3, and 4 refer to cultures extracted from various hospital patients.) The first 25 cultures were incubated with the prostaglandin (in the concentrations noted) for 24 hr. These cultures were then filtered and the supernate was submitted for cytotoxicity testing. The remaining 20 cultures were incubated without prostaglandin, filtered and then the prostaglandin was added to each supernate prior to cytotoxicity testing. The cytotoxin assay utilized human skin fibroblasts (HFF) as mono-layers in Costar 24 well-trays. The results are presented as the reciprocal of the cytotoxin dilution (serial 10-fold) causing altered cell morphology for 50% of the cells in the mono-layer. (see Table II.) Thus, 1000 means that a 1:1000 dilution of the filtrate caused an altered cell morphology for 50% of the cells in the mono-layer. Therefore, the higher the number, the more cytotoxin is present.

[3] = tested on: Human skin fibroblasts (HFF); assay: attempted protection of HFF from cytotoxins from different sources (altered cell morphology); format: cell-based
Experimental: To determine whether the presence of 16,16-dimethyl-PGE2 might interfere with the cytotoxin assay, several concentrations of cytotoxins were assayed in the presence of various concentrations of a prostaglandin.
The cytotoxins used were from hamster cecum, a filtrate of C. difficile broth culture, and the filtate of human feces from a patient with "antibiotic diarrhea". Serial 10-fold dilutions of the cytotoxins were prepared in BME-3% fbs. (BME 3% fbs is basal medium of Eagle with 3% fetal bovine (BOVINE Serum and antibiotics.))
16,16-Dimethyl-PGE2 (5 mg/ml in absolute ethanol) was used and further diluted in absolute ethanol.
Human skin fibroblasts (HFF) monolayers in wells of Costar trays (24 well) were refed with 0.8 ml BME-3% fbs. 0.1 ml of the various prostaglandin concentrations and absolute ethanol alone were added to the appropriate wells. Separate wells were then treated with (0.1 ml) of the appropriate dilution of each cytotoxin. The trays were incubated at 37° and examined microscopically for evidence of altered cell morphology.
Attempted protection of HFF from cytotoxins from different
sources by 16,16-dimethyl-PGE2. The results are expressed as the
number of cells showing evidence of altered morphology due to
cytotoxin. (0 = no change, +1 = 25% of the cells are rounded,
+ 2 = 50% of the cells are rounded, +3 = 75% of the cells are
rounded, and +4 = 100% of the cells are rounded. Tox =
toxic concentration of prostaglandin.)

C. difficile [4] = assay: cytotoxin assay, prostaglandin added to supernate after incubation of C. difficile (Prostaglandin Added After Incubation), titrated on HFF mono-layers; format: cell-based
Experimental: as §1

## CCCCC[C@@](C)(O)/C=C/[C@H]1[C@H](O)CC(=O)[C@@H]1C/C=C\CCCC(=O)O [15(R)-15-methyl-PGE2]
[1]
  conversion in mammalian metabolism: converted by acid in the stomach to 15(S)-15-methyl-PGE2
C. difficile [2]
  effectiveness as an antitoxic prostaglandin: not highly effective

## CCCCC[C@](C)(O)/C=C/[C@H]1[C@H](O)CC(=O)[C@@H]1C/C=C\CCCC(=O)O [15(S)-15-methyl-PGE2]
C. difficile [2]
  decrease of the amount of toxin released from C. difficile: at least 90%
  effectiveness as an antitoxic prostaglandin: effective

## CCCCC(C)(C)[C@@](C)(O)/C=C/[C@H]1[C@H](O)CC(=O)[C@@H]1C/C=C\CCCC(=O)O [15(S)-16,16-trimethyl-PGE2]
C. difficile [2]
  decrease of the amount of toxin released from C. difficile: at least 90%

## CCCCC(C)(C)[C@H](O)/C=C/[C@H]1[C@H](O)CC(=O)[C@@H]1C/C=C\CCCC(=O)O [16,16-dimethyl-PGE2]
[3]; C. difficile filtrate 1:10, prostaglandin 0.01 mcg/ml
  cells showing evidence of altered morphology due to cytotoxin: 4
[3]; C. difficile filtrate 1:10, prostaglandin 0.1 mcg/ml
  cells showing evidence of altered morphology due to cytotoxin: 4
[3]; C. difficile filtrate 1:10, prostaglandin 1 mcg/ml
  cells showing evidence of altered morphology due to cytotoxin: 4
[3]; C. difficile filtrate 1:10, prostaglandin 10 mcg/ml
  cells showing evidence of altered morphology due to cytotoxin: 4
[3]; C. difficile filtrate 1:100, prostaglandin 0.01 mcg/ml
  cells showing evidence of altered morphology due to cytotoxin: 4
[3]; C. difficile filtrate 1:100, prostaglandin 0.1 mcg/ml
  cells showing evidence of altered morphology due to cytotoxin: 4
[3]; C. difficile filtrate 1:100, prostaglandin 1 mcg/ml
  cells showing evidence of altered morphology due to cytotoxin: 4
[3]; C. difficile filtrate 1:100, prostaglandin 10 mcg/ml
  cells showing evidence of altered morphology due to cytotoxin: 4
[3]; C. difficile filtrate 1:1000, prostaglandin 0.01 mcg/ml
  cells showing evidence of altered morphology due to cytotoxin: 3
[3]; C. difficile filtrate 1:1000, prostaglandin 0.1 mcg/ml
  cells showing evidence of altered morphology due to cytotoxin: 3
[3]; C. difficile filtrate 1:1000, prostaglandin 1 mcg/ml
  cells showing evidence of altered morphology due to cytotoxin: 3
[3]; C. difficile filtrate 1:1000, prostaglandin 10 mcg/ml
  cells showing evidence of altered morphology due to cytotoxin: 3
[3]; Human cytotoxin 1:10, prostaglandin 0.01 mcg/ml
  cells showing evidence of altered morphology due to cytotoxin: 4
[3]; Human cytotoxin 1:10, prostaglandin 0.1 mcg/ml
  cells showing evidence of altered morphology due to cytotoxin: 4
[3]; Human cytotoxin 1:10, prostaglandin 1 mcg/ml
  cells showing evidence of altered morphology due to cytotoxin: 4
[3]; Human cytotoxin 1:10, prostaglandin 10 mcg/ml
  cells showing evidence of altered morphology due to cytotoxin: 4
[3]; Human cytotoxin 1:100, prostaglandin 0.01 mcg/ml
  cells showing evidence of altered morphology due to cytotoxin: 4
[3]; Human cytotoxin 1:100, prostaglandin 0.1 mcg/ml
  cells showing evidence of altered morphology due to cytotoxin: 4
[3]; Human cytotoxin 1:100, prostaglandin 1 mcg/ml
  cells showing evidence of altered morphology due to cytotoxin: 4
[3]; Human cytotoxin 1:100, prostaglandin 10 mcg/ml
  cells showing evidence of altered morphology due to cytotoxin: 3
[3]; Human cytotoxin 1:1000, prostaglandin 0.01 mcg/ml
  cells showing evidence of altered morphology due to cytotoxin: 1
[3]; Human cytotoxin 1:1000, prostaglandin 0.1 mcg/ml
  cells showing evidence of altered morphology due to cytotoxin: 1
[3]; Human cytotoxin 1:1000, prostaglandin 1 mcg/ml
  cells showing evidence of altered morphology due to cytotoxin: 1
[3]; Human cytotoxin 1:1000, prostaglandin 10 mcg/ml
  cells showing evidence of altered morphology due to cytotoxin: 1
[3]; conclusion from Table III
  effect on the interaction of the cytotoxin with the cell: did not affect the interaction of the cytotoxin with the cell
[3]; cytotoxins from three different sources
  protecting fibroblasts from morphological changes due to the action of the cytotoxin: ineffective
C. difficile [4]; ATCC #9689, prostaglandin 1 mcg/ml
  Cytotoxin Dilution (reciprocal of the cytotoxin dilution causing altered cell morphology for 50% of the cells): 100-1000
C. difficile [4]; ATCC #9689, prostaglandin 10 mcg/ml
  Cytotoxin Dilution (reciprocal of the cytotoxin dilution causing altered cell morphology for 50% of the cells): 10-100
C. difficile [4]; ATCC #9689, prostaglandin 50 mcg/ml
  Cytotoxin Dilution (reciprocal of the cytotoxin dilution causing altered cell morphology for 50% of the cells): 10
C. difficile [4]; Patient 1, prostaglandin 1 mcg/ml
  Cytotoxin Dilution (reciprocal of the cytotoxin dilution causing altered cell morphology for 50% of the cells): 1000
C. difficile [4]; Patient 1, prostaglandin 10 mcg/ml
  Cytotoxin Dilution (reciprocal of the cytotoxin dilution causing altered cell morphology for 50% of the cells): < 100
C. difficile [4]; Patient 1, prostaglandin 50 mcg/ml
  Cytotoxin Dilution (reciprocal of the cytotoxin dilution causing altered cell morphology for 50% of the cells): 100
C. difficile [4]; Patient 2, prostaglandin 1 mcg/ml
  Cytotoxin Dilution (reciprocal of the cytotoxin dilution causing altered cell morphology for 50% of the cells): 10
C. difficile [4]; Patient 2, prostaglandin 10 mcg/ml
  Cytotoxin Dilution (reciprocal of the cytotoxin dilution causing altered cell morphology for 50% of the cells): 10
C. difficile [4]; Patient 2, prostaglandin 50 mcg/ml
  Cytotoxin Dilution (reciprocal of the cytotoxin dilution causing altered cell morphology for 50% of the cells): < 10
C. difficile [4]; Patient 3, prostaglandin 1 mcg/ml
  Cytotoxin Dilution (reciprocal of the cytotoxin dilution causing altered cell morphology for 50% of the cells): < 10
C. difficile [4]; Patient 3, prostaglandin 10 mcg/ml
  Cytotoxin Dilution (reciprocal of the cytotoxin dilution causing altered cell morphology for 50% of the cells): < 10
C. difficile [4]; Patient 4, prostaglandin 1 mcg/ml
  Cytotoxin Dilution (reciprocal of the cytotoxin dilution causing altered cell morphology for 50% of the cells): 100-1000
C. difficile [4]; Patient 4, prostaglandin 10 mcg/ml
  Cytotoxin Dilution (reciprocal of the cytotoxin dilution causing altered cell morphology for 50% of the cells): 100
C. difficile [4]; Patient 4, prostaglandin 50 mcg/ml
  Cytotoxin Dilution (reciprocal of the cytotoxin dilution causing altered cell morphology for 50% of the cells): 10-100
C. difficile [2]; Control, 24 hr, prostaglandin 1 mcg/ml
  Cytotoxin Dilution (reciprocal of the cytotoxin dilution causing altered cell morphology for 50% of the cells): < 10
C. difficile [2]; Control, 24 hr, prostaglandin 10 mcg/ml
  Cytotoxin Dilution (reciprocal of the cytotoxin dilution causing altered cell morphology for 50% of the cells): < 10
C. difficile [2]; Control, 24 hr, prostaglandin 50 mcg/ml
  Cytotoxin Dilution (reciprocal of the cytotoxin dilution causing altered cell morphology for 50% of the cells): < 10
C. difficile [2]; Table II overall
  amount of toxin with increasing amount of prostaglandin: as the amount of prostaglandin increases, the amount of toxin decreases
C. difficile [2]
  decrease of the amount of toxin released from C. difficile: at least 90%
C. difficile [2]; incubated with C. difficile ATCC #9689, 24 hr, prostaglandin 1 mcg/ml
  Cytotoxin Dilution (reciprocal of the cytotoxin dilution causing altered cell morphology for 50% of the cells): 100-1000
C. difficile [2]; incubated with C. difficile ATCC #9689, 24 hr, prostaglandin 10 mcg/ml
  Cytotoxin Dilution (reciprocal of the cytotoxin dilution causing altered cell morphology for 50% of the cells): 100
C. difficile [2]; incubated with C. difficile ATCC #9689, 24 hr, prostaglandin 50 mcg/ml
  Cytotoxin Dilution (reciprocal of the cytotoxin dilution causing altered cell morphology for 50% of the cells): 10
C. difficile [2]; incubated with C. difficile strain Patient 1, 24 hr, prostaglandin 1 mcg/ml
  Cytotoxin Dilution (reciprocal of the cytotoxin dilution causing altered cell morphology for 50% of the cells): 100-1000
C. difficile [2]; incubated with C. difficile strain Patient 1, 24 hr, prostaglandin 10 mcg/ml
  Cytotoxin Dilution (reciprocal of the cytotoxin dilution causing altered cell morphology for 50% of the cells): 10
C. difficile [2]; incubated with C. difficile strain Patient 1, 24 hr, prostaglandin 50 mcg/ml
  Cytotoxin Dilution (reciprocal of the cytotoxin dilution causing altered cell morphology for 50% of the cells): 10
C. difficile [2]; incubated with C. difficile strain Patient 2, 24 hr, prostaglandin 1 mcg/ml
  Cytotoxin Dilution (reciprocal of the cytotoxin dilution causing altered cell morphology for 50% of the cells): 10-100
C. difficile [2]; incubated with C. difficile strain Patient 2, 24 hr, prostaglandin 10 mcg/ml
  Cytotoxin Dilution (reciprocal of the cytotoxin dilution causing altered cell morphology for 50% of the cells): 10-100
C. difficile [2]; incubated with C. difficile strain Patient 2, 24 hr, prostaglandin 50 mcg/ml
  Cytotoxin Dilution (reciprocal of the cytotoxin dilution causing altered cell morphology for 50% of the cells): < 10
C. difficile [2]; incubated with C. difficile strain Patient 3, 24 hr, prostaglandin 1 mcg/ml
  Cytotoxin Dilution (reciprocal of the cytotoxin dilution causing altered cell morphology for 50% of the cells): < 10
C. difficile [2]; incubated with C. difficile strain Patient 3, 24 hr, prostaglandin 10 mcg/ml
  Cytotoxin Dilution (reciprocal of the cytotoxin dilution causing altered cell morphology for 50% of the cells): < 10
C. difficile [2]; incubated with C. difficile strain Patient 3, 24 hr, prostaglandin 50 mcg/ml
  Cytotoxin Dilution (reciprocal of the cytotoxin dilution causing altered cell morphology for 50% of the cells): < 10
C. difficile [2]; incubated with C. difficile strain Patient 4, 24 hr, prostaglandin 1 mcg/ml
  Cytotoxin Dilution (reciprocal of the cytotoxin dilution causing altered cell morphology for 50% of the cells): 100
C. difficile [2]; incubated with C. difficile strain Patient 4, 24 hr, prostaglandin 10 mcg/ml
  Cytotoxin Dilution (reciprocal of the cytotoxin dilution causing altered cell morphology for 50% of the cells): 10-100
C. difficile [2]; incubated with C. difficile strain Patient 4, 24 hr, prostaglandin 50 mcg/ml
  Cytotoxin Dilution (reciprocal of the cytotoxin dilution causing altered cell morphology for 50% of the cells): 10
